Laboratory results reported in patent US6660830B1, “Peptides with antiproliferative properties” (priority 1996, dated 2003).
Positions of bridges follow the written chain, without caps; N, C: chain ends. Non-standard residues stand in square brackets, D forms with d. Chains are numbered I, II in the order given. No end group written: not given here.

Key:
MCF-7 cells [1] = test: Cell cycle distribution by FACS in MCF-7 breast cancer cells; type: cell-based; conditions: for effect on S phase (words, summary of Table 1): MCF-7 stimulated by IGF-1 10^-8 M or insulin 10^-6 M; for effect on S phase (words, summary of Table 1) / G1 (cell population in G1 phase) / G2/M (cell population in G2/M phase) / S (cell population in S phase): peptide 10^-5 M; for morphology of treated cells: peptide 10^-5 M (FIG. 2, 4, 7, 11, 12); for G1 (cell population in G1 phase) / G2/M (cell population in G2/M phase) / S (cell population in S phase): FACS
Protocol: (§1) The experimental setting comprises experiments with the breast cancer cell line MCF-7 containing an intact retinblastoma protein and the human osteosarcoma cell line SAOS-2 containing a defective retinoblastoma protein. Cells are seeded in 12-well plates at 100000 (=one hundred thousand) cells/well/ml in RPMI medium or DMEM medium containing 10% FCS and allowed to adhere for 24 hours. Subsequently, the cells are starved by incubation for 3 days in DMEM without FCS, such that they are synchronized in the G0/G1 phase and then the cells are stimulated by 10% FCS or 10^−8 M IGF-1 or 10^−6 M insulin, respectively, for 24 hours. The effect of each of the added peptides on each of the above modes of stimulation, which effect reflects the rate of cell division, is investigated. The control (cells synchronized in G0/G1) is fixed at time 0 after three days of starvation. The remaining cells (+/−peptide) are fixed after 24 hours. The cells are subsequently analyzed by FACS for their cell cycle distribution. Analogous methods are to be found e.g. in R. Fahraeus et al., Current Biology, 1996, vol. 6, no. 1, pp. 84-91 and L. Zhu et al., Genes & Development, 1993, vol. 7, pp. 1111-1125.

SAOS-2 cells [2] = test: Cell cycle distribution by FACS in SAOS-2 osteosarcoma cells; type: cell-based, human; conditions: for effect on cell cycle phases (words, summary of Table 2): peptide 5x10^-5 M each; for G1 (cell population in G1 phase) / G2/M (cell population in G2/M phase) / S (cell population in S phase): SAOS-2 synchronized in G0/G1, stimulated by 10% FCS for 24 h, peptide 5x10^-5 M, FACS
Protocol: as §1

MCF-7 cells [3] = test: Cell cycle distribution by FACS in MCF-7 breast cancer cells; type: cell-based
K562 cells = test: Cytotoxicity by the trypan blue method in K562 leukemia cells; type: cell-based; conditions: asynchronously growing K562 in RPMI; peptide 10^-5 M (FIG. 13)
Protocol: The results have been plotted as the living cells treated with P3 being a percentage of the living cells not treated with P3. The number of the living cells has been determined by counting at least 200 cells at each time point according to the trypan blue method.
(§2) The second experimental setting relates to the leukemia cell lines K562 and CCRF-CEM and CCRF-CEM/ACT400. 100000 asynchronously growing cells/well/ml RPMI/10% FCS have each been incubated for 48 hours with each of the peptides in 6-well plates. As a readout, the number of dead cells/200 counted cells is determined according to the trypan blue method (L. D. Attardi et al., The EMBO Journal, 1996, vol. 15, no. 14, pp. 3693-3701 and M. K. Reeder & H. C. Isom, Cell Growth & Differentiation 196, vol. 7, pp. 449-460) after this 48-hour incubation.

CCRF-CEM cells = test: Cytotoxicity by the trypan blue method in CCRF-CEM sensitive leukemia cells; type: cell-based; conditions: asynchronously growing CCRF-CEM sensitive cells, RPMI 10% FCS; peptide 10^-5 M (FIG. 14)
Protocol: as §2

CCRF-CEM/ACT 400 cells = test: Cytotoxicity by the trypan blue method in CCRF-CEM/ACT 400 resistant leukemia cells; type: cell-based; conditions: asynchronously growing CCRF-CEM/ACT 400 resistant cells, RPMI 10% FCS; peptide 10^-5 M (FIG. 14)
Protocol: as §2

[4] = system: normal human peripheral blood mononuclear cells; test: Effect on normal peripheral blood mononuclear cells; type: cell-based; conditions: peptide 10^-5 M, 24 hours (FIG. 15)
Protocol: The incubation of cells with P3 was performed for a time period of 24 hours.

SAOS-2 cells [5] = test: Cell cycle distribution by FACS in SAOS-2 osteosarcoma cells; type: cell-based, human; conditions: SAOS-2 synchronized in G0/G1, serum-free conditions; peptide 10^-5 M (FIG. 8)
[6] = MCF-7 stimulated by IGF-1 10^-8 M
[7] = MCF-7 stimulated by IGF-1 10^-8 M, peptide 10^-5 M (FIG. 2, 4, 11, 12)
[8] = MCF-7 synchronized in G0/G1, serum-free conditions, peptide 10^-5 M (FIG. 1, 3)
[9] = MCF-7 synchronized in G0/G1, stimulated by IGF-1 10^-8 M for 24 h
[10] = MCF-7 synchronized in G0/G1, stimulated by insulin 10^-6 M for 24 h
[11] = SAOS-2 stimulated by 10% FCS, peptide 10^-5 M (FIG. 9)
[12] = MCF-7 stimulated by EGF 10^-8 M, peptide 10^-5 M (FIG. 6)
[13] = MCF-7 stimulated by estradiol (E2) 10^-9 M, peptide 10^-5 M (FIG. 6)
[14] = asynchronously growing MCF-7 in DMEM containing 10% FCS, peptide 10^-5 M (FIG. 10)

| Substance | effect on S phase (words, summary of Table 1) (MCF-7 cells [1]) | morphology of treated cells (MCF-7 cells [1]; [6]) | effect on cell cycle phases (MCF-7 cells [1]; [7]) | effect on cell cycle phases (MCF-7 cells [1]; [8]) | G1 (cell population in G1 phase) (MCF-7 cells [1]; [9]) | G2/M (cell population in G2/M phase) (MCF-7 cells [1]; [9]) | S (cell population in S phase) (MCF-7 cells [1]; [9]) | effect on cell cycle phases (words, summary of Table 2) (SAOS-2 cells [2]; SAOS-2 stimulated by 10% FCS) | G1 (cell population in G1 phase) (SAOS-2 cells [2]) | G2/M (cell population in G2/M phase) (SAOS-2 cells [2]) | S (cell population in S phase) (SAOS-2 cells [2]) | morphology of treated cells (MCF-7 cells [3]; [8]) | also measured |
| --- | --- | --- | --- | --- | --- | --- | --- | --- | --- | --- | --- | --- | --- |
| NH2-LFYKKVRQIKIWFQNRRMKWKK-COOH (H-LFYKKVRQIKIWFQNRRMKWKK-OH) [P6] | reduce the S phase | corresponds to that of apoptotic cells | increases the G1 phase as well as decreases the S phase | reduces the G1 phase and increases the S phase | 53.7 | 18.6 | 27.7 | increase of the G1 phase and a decrease of the S phase | 76.6 | 11.2 | 12.2 | corresponds to that of apoptotic cells | G1 (cell population in G1 phase) (MCF-7 cells [1]; [10]): 48.7; G2/M (cell population in G2/M phase) (MCF-7 cells [1]; [10]): 14.6; S (cell population in S phase) (MCF-7 cells [3]; MCF-7 synchronized in G0/G1, stimulated by insulin 10^-6 M for 24 h, peptide 10^-5 M, FACS): 36.6 |
| NH2-LFYKKVPKKKRKV-COOH (H-LFYKKVPKKKRKV-OH) [P5] | reduce the S phase | – | – | reduces the G1 phase and increases the S phase | 54.0 | 13.6 | 32.4 | increase of the G1 phase and a decrease of the S phase | 73.5 | 13.3 | 13.2 | corresponds to that of apoptotic cells | – |
| I: [dL][dF][dY][dK][dK][dV]GGGK[dR]GKG / II: [dL][dF][dY][dK][dK][dV]GGGK[dR]G / III: [dL][dF][dY][dK][dK][dV]GGG / IV: [dL][dF][dY][dK][dK][dV]GGG (amide I:10-IV:C, I:13-II:C, II:10-III:C) [P3, NH2-[dLdFdYdKdKdV-GGG]4-[1KdRG]2-1KG-COOH] | – | corresponds to that of apoptotic cells | increase of the G1 and G2/M phases as well as in a decrease of the S phase | reduces the G1 phase and increases the S phase | – | – | – | – | – | – | – | corresponds to that of apoptotic cells | effect on cell cycle phases (SAOS-2 cells [2]; [11]): increases the G1 phase and decreases the S phase; morphology of treated cells (SAOS-2 cells [2]; [11]): corresponds to that of apoptotic cells; cytotoxic effect (living treated cells as percentage of living untreated cells, trypan blue) (K562 cells): time-dependent; cytotoxic effect (CCRF-CEM cells): act in a cytotoxic manner; cytotoxic effect (CCRF-CEM/ACT 400 cells): act in a cytotoxic manner; effect on normal cells ([4]; activated state (b)): no effect; morphological changes of treated cells ([4]; quiescent or activated): do not show any morphological changes; effect on normal cells ([4]; quiescent state (a)): no effect; morphology of treated cells (MCF-7 cells [3]; MCF-7, IGF-1 10^-8 M, peptide 5x10^-6 M (FIG. 7)): corresponds to that of apoptotic cells; blocks the progression of the cell cycle caused by IGF-1 (MCF-7 cells [3]; MCF-7, IGF-1 10^-8 M, several peptide concentrations (FIG. 7)): in a dose-dependent manner; effect on cell cycle phases (MCF-7 cells [3]; [12]): increases the G1- and the G2 phases as well as decreases the S phase; morphology of treated cells (MCF-7 cells [3]; [12]): corresponds to that of apoptotic cells; effect on cell cycle phases (MCF-7 cells [3]; [13]): increases the G1- and the G2 phases as well as decreases the S phase; morphology of treated cells (MCF-7 cells [3]; [13]): corresponds to that of apoptotic cells; effect on cell cycle phases (MCF-7 cells [3]; [14]): reduces the G1 phase and increases the S phase; morphology of treated cells (MCF-7 cells [3]; [14]): corresponds to that of apoptotic cells; effect on cell cycle phases (SAOS-2 cells [5]): reduces the G1 phase and increases the S and G2/M phases; morphology of treated cells (SAOS-2 cells [5]): corresponds to that of apoptotic cells |
| NH2-KVLYFKRQIKIWFQNRRMKWKK-COOH (H-KVLYFKRQIKIWFQNRRMKWKK-OH) [P8] | – | corresponds to that of apoptotic cells | increases the G1 phase and the G2/M phase as well as decreases the S phase | – | – | – | – | – | – | – | – | – | – |
| NH2-[dKdVdLdYdFdKGGG]4-[1KdRG]2-1KG-COOH (H-[dK][dV][dL][dY][dF][dK]GGG[dK][dV][dL][dY][dF][dK]GGG[dK][dV][dL][dY][dF][dK]GGG[dK][dV][dL][dY][dF][dK]GGGK[dR]GK[dR]GKG-OH; also: branched: four arms on polylysine core) [P7s, combination of dKdVdLdYdFdK, hydropathically homologous to P1, and a polylysine core] | – | corresponds to that of apoptotic cells | increases the G1 phase and the G2/M phase as well as decreases the S phase | – | – | – | – | – | – | – | – | – | – |
